Assay results taken from the supplement of paper PMC12592484.

Experiments:
Test in all cases: drug sensitivity score (DSS2, normalised partial AUC of dose-response, 72 h CellTiter-Glo viability) (DSS (dimensionless)); higher = more sensitive (stronger growth inhibition / cytotoxicity); extreme values may be limits of the assay
22Rv1 = tested on: 22Rv1
In short: (§1)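 The drug sensitivity score reported here is a partial area under the fitted logistic dose–response curve, divided by the log of the curve's upper asymptote and computed in BREEZE; higher values denote greater sensitivity. Low-passage primary prostate cancer-associated fibroblasts, PF179T, WPMY-1, LNCaP and 22Rv1 cells were seeded into 384-well plates preloaded with compounds at five doses across a 10,000-fold range. CellTiter-Glo 2.0 luminescence gave viability at 72 h, scaled to vehicle and positive-control wells.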

CAF#1 = tested on: CAF#1 (primary prostate cancer-associated fibroblasts of myCAF-like type)
In short: as §1

CAF#2 = tested on: CAF#2 (primary prostate cancer-associated fibroblasts of iCAF-like type)
In short: as §1

CAF#3 = tested on: CAF#3 (primary prostate cancer-associated fibroblasts of myCAF-like type)
In short: as §1

CAF#4 = tested on: CAF#4 (primary prostate cancer-associated fibroblasts of iCAF-like type)
In short: as §1

CAF#5 = tested on: CAF#5 (primary prostate cancer-associated fibroblasts of myCAF-like type)
In short: as §1

CAF#6 = tested on: CAF#6 (primary prostate cancer-associated fibroblasts of iCAF-like type)
In short: as §1

CAF#7 = tested on: CAF#7 (primary prostate cancer-associated fibroblasts of myCAF-like type)
In short: as §1

LNCAP = tested on: LNCAP
In short: as §1

PF179T = tested on: PF179T
In short: as §1

WPMY-1 = tested on: WPMY-1
In short: as §1

Structure (SMILES) | drug sensitivity score (22Rv1) | drug sensitivity score (CAF#1) | drug sensitivity score (CAF#2) | drug sensitivity score (CAF#3) | drug sensitivity score (CAF#4) | drug sensitivity score (CAF#5) | drug sensitivity score (CAF#6) | drug sensitivity score (CAF#7) | drug sensitivity score (LNCAP) | drug sensitivity score (PF179T) | drug sensitivity score (WPMY-1)
O=C(/C=C\n1cnc(-c2cc(C(F)(F)F)cc(C(F)(F)F)c2)n1)NNc1cnccn1 [Selinexor] (tested concentration range 1-10000 nM) | 30.5 | 16.5 | 21.3 | 9.9 | 17.8 | 14.6 | 11.7 | 11.9 | 26.2 | 16.4 | 27.4
Cc1cc(F)c(C(=O)Nc2cccc(-c3nncn3C(C)C)n2)cc1-n1cnc(C2CC2)c1 [Selonsertib] (tested concentration range 0.1-1000 nM) | 0 | 0 | 0 | 0 | 0 | 0 | 0 | 0 | 1.4 | 0 | 0
Cn1cnc2c(F)c(Nc3ccc(Br)cc3Cl)c(C(=O)NOCCO)cc21 [Selumetinib] (tested concentration range 1-10000 nM) | 14.4 | 1.2 | 4.5 | 0 | 2.5 | 1.6 | 1.1 | 2.6 | 0 | 2.5 | 4.3
Nc1nc2cc(-c3ccc4ncc(C(=O)N5CCOCC5)n4c3)ccc2o1 [Serabelisib] (tested concentration range 1-10000 nM) | 5.2 | 3.2 | 4.3 | 4.2 | 2.1 | 5.7 | 4.5 | 3.4 | 2.3 | 2.8 | 1.2
O=C(O)c1ccc2c(c1)nc(Nc1cccc(Cl)c1)c1ccncc12 [Silmitasertib] (tested concentration range 1-10000 nM) | 6 | 5.4 | 4 | 0.7 | 2.2 | 4.6 | 0.6 | 1.5 | 3.9 | 2.5 | 5.1
CO[C@H]1C[C@@H]2CC[C@@H](C)[C@@](O)(O2)C(=O)C(=O)N2CCCC[C@H]2C(=O)O[C@H]([C@H](C)C[C@@H]2CC[C@@H](O)[C@H](OC)C2)CC(=O)[C@H](C)/C=C(\C)[C@@H](O)[C@@H](OC)C(=O)[C@H](C)C[C@H](C)/C=C/C=C/C=C/1C [Sirolimus] (tested concentration range 0-100 nM) | 9.3 | 6.5 | 6.8 | 2.2 | 4.9 | 7.4 | 3.4 | 3.7 | 2.5 | 5.6 | 4
COCCNCc1ccc(-c2cc3nccc(Oc4ccc(NC(=O)C5(C(=O)Nc6ccc(F)cc6)CC5)cc4F)c3s2)nc1 [Sitravatinib] (tested concentration range 0.2-2500 nM) | 4.7 | 5.5 | 9.7 | 4.5 | 6.6 | 6.6 | 3.4 | 5.7 | 2.1 | 6.7 | 5.9
Cc1c(C(=O)Nc2ccc(N3C[C@@H](C)O[C@@H](C)C3)nc2)cccc1-c1ccc(OC(F)(F)F)cc1 [Sonidegib] (tested concentration range 1-10000 nM) | 2.2 | 0 | 1.7 | 0 | 3.2 | 1.5 | 0 | 0 | 4.9 | 0 | 0
CNC(=O)c1cc(Oc2ccc(NC(=O)Nc3ccc(Cl)c(C(F)(F)F)c3)cc2)ccn1 [Sorafenib] (tested concentration range 0.1-1000 nM) | 0 | 0 | 0 | 2.6 | 1.2 | 0 | 0 | 0 | 0 | 0 | 0
CN1CCN(c2nc(C3=C(c4c[nH]c5ccccc45)C(=O)NC3=O)c3ccccc3n2)CC1 [Sotrastaurin] (tested concentration range 1-10000 nM) | 3.6 | 0 | 2.2 | 0 | 0 | 0 | 0 | 0 | 3.5 | 0 | 1.5
CC(C)n1cnc2c(NCCc3ccc(O)cc3)nc(-c3csc4ccccc34)nc21 [StemRegenin 1] (tested concentration range 1-10000 nM) | 2.5 | 1.5 | 1.7 | 3.5 | 2.6 | 1.7 | 0.6 | 0 | 5 | 0 | 2.1
CCN(CC)CCNC(=O)c1c(C)[nH]c(/C=C2\C(=O)Nc3ccc(F)cc32)c1C [Sunitinib] (tested concentration range 0.1-1000 nM) | 0.8 | 0 | 2.5 | 2.8 | 0 | 0.3 | 0 | 0 | 0 | 0 | 0.5
